Like-named read-outs stand apart in the source and are kept apart here.
Molecular target: T1, HIF-2α HIS TAG-PASB Domain (Homo sapiens, UniProt Q99814)
T1 construct: 100 nM HIF-2α HIS TAG-PASB Domain
Assay: HIF-2α Scintillation Proximity Assay (SPA)
Type: binding
Description: The total assay volume was about 100 μL in the following configuration: 2 μL compound in 100% DMSO, 88 μL buffer with protein and probe and 10 μL of SPA beads. […] The percent inhibition was determined and IC50 values were calculated using the Dotmatics system based on the following equation: % inhibition=[(high control−sample)/(high control−low control)]×100.

[1] = read-out: Scintillation Proximity Assay IC50
[2] = Scintillation Proximity Assay IC50 (nM)

T1 sequence (Q99814 240-350 limits assumed): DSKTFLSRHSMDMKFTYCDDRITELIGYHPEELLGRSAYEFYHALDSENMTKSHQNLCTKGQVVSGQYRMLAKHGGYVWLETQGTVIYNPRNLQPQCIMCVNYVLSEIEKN

| Structure (SMILES) | IC50 [1] | IC50 [2] |
| --- | --- | --- |
| CC(Oc1ccc(S(=O)(=O)C(F)(F)F)c2c1CC(F)(F)C2O)c1ccccc1 (stereo not drawn) [Compound 664] | > 1000 nM | – |
| O=S(=O)(c1ccc(OC2CCC(O)CC2)c2c1C(O)CC2)C(F)(F)F (stereo not drawn) [Compound 615] | > 1000 nM | – |
| CO[C@H]1c2c(S(C)(=O)=O)ccc(Oc3cc(F)cc(C#N)c3)c2CC1(F)F [Compound 210] | > 1000 nM | – |
| CC1(C)CC[C@H](O)[C@@H](c2ccc(S(=O)(=O)C(F)(F)F)c3c2CC(F)(F)[C@H]3O)C1 [Compound 544] | > 1000 nM | – |
| N#Cc1ccc(Oc2cc(F)cc(F)c2)c2c1[C@H](O)CC2 [Compound 66] | > 1000 nM | – |
| COc1ccc(S(C)(=O)=O)c2c1CCC2O (stereo not drawn) [Compound 776] | > 1000 nM | – |
| Cc1c(Oc2cc(F)cc(C#N)c2)ccc(S(=O)(=O)C(F)(F)F)c1/C=C/C(=O)NCc1ccccc1 [Compound 149] | > 1000 nM | – |
| CC1(O)c2c(ccc(Oc3cc(F)cc(C#N)c3)c2C(F)F)S(=O)(=O)C1(F)F (stereo not drawn) [Compound 442] | 50 to 249 nM | – |
| CS(=O)(=O)c1cc(F)c(Oc2cc(F)cc(C#N)c2)c2c1C(O)C(F)(F)C2 (stereo not drawn) [Compound 219] | > 1000 nM | – |
| COCCCOc1ccc(S(=O)(=O)C(F)(F)F)c2c1CCC2O (stereo not drawn) [Compound 600] | > 1000 nM | – |
| C/C(=N\O)c1c(S(=O)(=O)C(F)(F)F)ccc(Oc2cc(F)cc(Cl)c2)c1Br [Compound 106] | 250 to 1000 nM | – |
| O=C1CS(=O)(=O)c2ccc(Oc3cc(F)cc(F)c3)cc21 [Compound 417] | > 1000 nM | – |
| O=S(=O)(c1ccc(OC2CCNCC2)c2c1C(O)CC2)C(F)(F)F (stereo not drawn) [Compound 606] | > 1000 nM | – |
| O=S(=O)(c1ccc(NCc2ccco2)c2c1[C@H](O)C(F)(F)C2)C(F)F [Compound 529] | > 1000 nM | – |
| N#Cc1cc(F)cc(Oc2ccc3c(c2C(F)F)C(N)C(F)(F)S3(=O)=O)c1 (stereo not drawn) [Compound 387] | 50 to 249 nM | – |
| NC(=O)C1CCc2c(OCC(F)F)ccc(C(=O)O)c21 (stereo not drawn) [Compound 693] | > 1000 nM | – |
| O=S(=O)(c1ccc(OC2CCNC2)c2c1C(O)C(F)(F)C2)C(F)(F)F (stereo not drawn) [Compound 643] | > 1000 nM | – |
| CNC(=O)C(C)Oc1ccc(S(=O)(=O)C(F)(F)F)c2c1CC(F)(F)C2O (stereo not drawn) [Compound 645] | > 1000 nM | – |
| CS(=O)(=O)c1ccc(Oc2cncc(C#N)c2)c2c1[C@H](O)[C@H](F)[C@@H]2F [Compound 333] | 50 to 249 nM | – |
| N#Cc1c(Oc2cc(F)cc(Cl)c2)ccc(S(=O)(=O)C(F)(F)F)c1C(=O)O [Compound 105] | > 1000 nM | – |
| N#Cc1cncc(Oc2ccc3c(c2C(F)F)C(O)C(F)(F)S3(=O)=O)c1 (stereo not drawn) [Compound 383] | – | 50 to 249 nM |

| Structure (SMILES) | IC50 [1] | IC50 [2] |
| --- | --- | --- |
| CS(=O)(=O)c1ccc(Nc2cc(F)cc(C#N)c2)c2c1C(O)CC2 (stereo not drawn) [Compound 498] | > 1000 nM | – |
| O=S(=O)(c1ccc(Oc2cc(F)cc3[nH]ncc23)c2c1C(O)C(F)(F)C2)C(F)(F)F (stereo not drawn) [Compound 262] | > 1000 nM | – |
| CCCc1ccc(S(=O)(=O)C(F)(F)F)c2c1CCC2O (stereo not drawn) [Compound 515] | > 1000 nM | – |
| CC(C)Oc1ccc(S(=O)(=O)C(F)(F)F)c2c1CCC2O (stereo not drawn) [Compound 592] | > 1000 nM | – |
| O=S(=O)(c1ccc(Oc2cc(Cl)ccc2F)c(Br)c1)C(F)(F)F [Compound 170] | > 1000 nM | – |
| O[C@H]1c2c(OCC(F)F)ccc(C(F)(F)F)c2[C@@H](F)C1(F)F [Compound 689] | > 1000 nM | – |
| N#Cc1cc(S(=N)(=O)C(F)(F)F)ccc1Oc1cc(F)cc(Cl)c1 (stereo not drawn) [Compound 72] | 250 to 1000 nM | – |
| N=S1(=O)c2ccc(Oc3cc(F)cc(F)c3)c(Br)c2C(O)C1(F)F (stereo not drawn) [Compound 378] | 50 to 249 nM | – |
| CC1(C)C[C@@H](O)C[C@H](c2ccc(S(=O)(=O)C(F)(F)F)c3c2CC(F)(F)[C@H]3O)C1 [Compound 552] | > 1000 nM | – |
| N#Cc1c(Oc2cc(F)cc(Cl)c2)ccc2c1CCS2(=O)=O [Compound 351] | > 1000 nM | – |
| O/N=C1\CCc2c(OCC(F)F)ccc(C(F)(F)F)c21 [Compound 698] | > 1000 nM | – |
| N#Cc1cc(F)cc(Oc2ccc3c(c2Br)[C@@H](O)CS3(=O)=O)c1 [Compound 415] | > 1000 nM | – |
| NS(=O)(=O)c1ccc(Oc2cc(F)cc(F)c2)c2c1C(O)CC2 (stereo not drawn) [Compound 257] | > 1000 nM | – |
| Cc1c(S(C)(=O)=O)ccc(Oc2cc(F)cc(C#N)c2)c1C#N [Compound 51] | > 1000 nM | – |
| N#Cc1cc(F)cc(Oc2ccc3c(c2Br)[C@@H](O)C(F)(F)S3(=O)=O)c1 [Compound 347] | < 50 nM | – |
| CC(C)(C)OC(=O)NCc1c(S(=O)(=O)C(F)F)ccc(Oc2cc(F)cc(Cl)c2)c1Br [Compound 83] | > 1000 nM | – |
| CS(=O)(=O)c1ccc(OC2CC2)c2c1[C@H](O)C(F)(F)[C@@H]2F [Compound 773] | > 1000 nM | – |
| OC1c2cccc(OCC(F)F)c2CC1(F)F (stereo not drawn) [Compound 651] | > 1000 nM | – |
| CS(=O)(=O)c1ccc(Nc2cc(F)cc(C#N)c2)c2c1C(O)C(F)(F)C2 (stereo not drawn) [Compound 502] | > 1000 nM | – |
| COC(=O)c1cc(S(=O)(=O)C(F)(F)F)ccc1Oc1cc(F)cc(Cl)c1 [Compound 121] | – | > 1000 nM |
| CC(Oc1ccc(S(=O)(=O)C(F)(F)F)c2c1CC(F)(F)C2O)C(=O)O (stereo not drawn) [Compound 646] | > 1000 nM | – |

| Structure (SMILES) | IC50 [1] | IC50 [2] |
| --- | --- | --- |
| CS(=O)(=O)c1ccc(Oc2cncc(Br)c2)c2c1[C@H](O)[C@H](F)[C@@H]2F [Compound 328] | < 50 nM | – |
| C=CCC1(O)c2c(S(=O)(=O)C(F)F)ccc(Oc3cc(F)cc(F)c3)c2CC1(F)F (stereo not drawn) [Compound 12] | > 1000 nM | – |
| Cc1cc(C)cc(Oc2ccc(S(=O)(=O)C(F)(F)F)cc2Br)c1 [Compound 173] | > 1000 nM | – |
| O=S(=O)(CF)c1ccc(Oc2cc(F)cc(Cl)c2)c(Br)c1 [Compound 137] | 250 to 1000 nM | – |
| CCOCC1(COc2ccc(S(=O)(=O)C(F)(F)F)c3c2CC(F)(F)[C@H]3O)COC1 [Compound 708] | > 1000 nM | – |
| N#Cc1cc(F)cc(Oc2ccc(Br)c3c2C(F)(F)C(F)(F)C3)c1 [Compound 248] | > 1000 nM | – |
| O=S(=O)(c1ccc(C(O)CO)c2c1[C@H](O)C(F)(F)C2)C(F)(F)F (stereo partly drawn) [Compound 533] | > 1000 nM | – |
| CS(=O)(=O)c1ccc(Oc2cncc(Br)c2)c2c1C(=O)C(F)(F)C2 [Compound 323] | > 1000 nM | – |
| N#Cc1c(Oc2cc(F)cc(Cl)c2)ccc2c1C(O)CS2(=O)=O (stereo not drawn) [Compound 353] | 50 to 249 nM | – |
| CS(=O)(=O)c1ccc(Oc2cncc(C#N)c2)c2c1[C@H](O)C(F)(F)[C@H]2F [Compound 343] | > 1000 nM | – |
| OC1c2c(I)cc(I)c(OCC(F)F)c2CC1F (stereo not drawn) [Compound 667] | > 1000 nM | – |
| Cc1c(Cl)cccc1Oc1ccc(S(=O)(=O)C(F)(F)F)cc1Br [Compound 171] | > 1000 nM | – |
| O=S(=O)(c1ccc(CCCO)c2c1C(O)CC2)C(F)(F)F (stereo not drawn) [Compound 522, 4-(3-hydroxypropyl)-7-((trifluoromethyl)sulfonyl)-2,3-dihydro-1H-inden-1-ol] | 250 to 1000 nM | – |
| O=S(=O)(c1ccc(Cc2ccccc2)c2c1C(O)CC2)C(F)(F)F (stereo not drawn) [Compound 510] | > 1000 nM | – |
| O=S(=O)(CF)c1ccc(Oc2cccc3sccc23)c2c1C(O)CC2 (stereo not drawn) [Compound 239] | > 1000 nM | – |
| CS(=O)(=NC#N)c1ccc(Oc2cc(F)cc(C#N)c2)c2c1C(O)CC2 (stereo not drawn) [Compound 68] | > 1000 nM | – |
| Cc1c([S+]([O-])C(F)F)ccc(Oc2cc(F)cc(Cl)c2)c1C#N (stereo not drawn) [Compound 37] | > 1000 nM | – |
| O=S(=O)(c1ccc(Oc2cc(F)cc(Cl)c2)c(CO)c1)C(F)(F)F [Compound 122] | – | > 1000 nM |
| O=S(=O)(c1ccc(OC2CCOCC2)c2c1C(O)CC2)C(F)(F)F (stereo not drawn) [Compound 745] | > 1000 nM | – |
| CS(=O)(=NC#N)c1ccc(Oc2cncc(C#N)c2)c2c1[C@H](O)C(F)(F)[C@@H]2F (stereo partly drawn) [Compound 319] | < 50 nM | – |
| O=C1c2c(C(F)(F)F)ccc(OCC(F)F)c2CC1(F)F [Compound 695] | > 1000 nM | – |

| Structure (SMILES) | IC50 [1] | IC50 [2] |
| --- | --- | --- |
| NC1c2c(ccc(Oc3cc(F)cc(F)c3)c2C(F)F)S(=O)(=O)C1F (stereo not drawn) [Compound 366] | > 1000 nM | – |
| CS(=O)(=O)c1ccc(O[C@H]2CC[C@@H](C#N)CC2)c2c1[C@H](O)C(F)(F)[C@@H]2F [Compound 758] | > 1000 nM | – |
| NC(=O)COc1ccc(S(=O)(=O)C(F)(F)F)c2c1CC(F)(F)C2O (stereo not drawn) [Compound 640] | > 1000 nM | – |
| O=S(=O)(c1cc(C(F)(F)F)ccc1Oc1cc(F)cc(Cl)c1)C(F)(F)F [Compound 129] | > 1000 nM | – |
| O=C(O)COc1ccc(S(=O)(=O)C(F)(F)F)c2c1CC(F)(F)C2O (stereo not drawn) [Compound 633] | > 1000 nM | – |
| Cc1ccc(Cl)cc1Oc1ccc(S(=O)(=O)C(F)(F)F)cc1Br [Compound 174] | > 1000 nM | – |
| CS(=O)(=O)c1ccc(O[C@H]2C[C@@H](C(N)=O)C2)c2c1[C@H](O)C(F)(F)[C@@H]2F [Compound 763] | > 1000 nM | – |
| N#Cc1cc(F)cc(Oc2ccc(S(=N)(=O)C(F)(F)F)c3c2CCC3O)c1 (stereo not drawn) [Compound 259] | > 1000 nM | – |
| CS(=O)(=O)c1ccc(Oc2cncc(F)c2)c2c1[C@H](O)C(F)(F)[C@@H]2F [Compound 329] | < 50 nM | – |
| CCS(=O)(=O)c1ccc(Oc2cc(F)cc(C#N)c2)c2c1C(O)CC2 (stereo not drawn) [Compound 205] | > 1000 nM | – |
| O=S1(=O)c2ccc(Oc3cncc(Cl)c3)c(C(F)F)c2C(O)C1(F)F (stereo not drawn) [Compound 381] | – | 50 to 249 nM |
| CN(C)CCOc1ccc(S(=O)(=O)C(F)(F)F)c2c1CC(F)(F)C2O (stereo not drawn) [Compound 641] | > 1000 nM | – |
| O=[N+]([O-])c1c(Oc2cccc(Cl)c2)ccc(C(F)(F)F)c1Cl [Compound 204] | 50 to 249 nM | – |
| O=S(=O)(c1ccc(-c2ccn[nH]2)c2c1[C@H](O)C(F)(F)C2)C(F)(F)F [Compound 561] | > 1000 nM | – |
| N#Cc1cc(F)cc(Oc2ccc(S(=O)(=O)C(F)(F)F)c3c2CC(F)C3N)c1 (stereo not drawn) [Compound 265] | 50 to 249 nM | – |
| NC(=O)Cc1ccc(S(=O)(=O)C(F)(F)F)c2c1CC[C@H]2O [Compound 525] | > 1000 nM | – |
| O=C1c2c(S(=O)(=O)C(F)F)ccc(Oc3ccc(F)c(Br)c3)c2CC1(F)F [Compound 193] | 250 to 1000 nM | – |
| N#Cc1cncc(Oc2ccc(S(N)(=O)=O)c3c2[C@@H](F)C(F)(F)[C@H]3O)c1 [Compound 340] | < 50 nM | – |
